Source: PubChem BioAssay (NCI)
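Values below derive from 48-hour exposures of cells grown in 96-well plates, with endpoints linearly interpolated between the two concentrations bracketing the appropriate inhibition level. At the TGI there is no net growth.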

Legend:
Test in all cases: DTP human tumour cell line panel, 48 h
OVCAR-8 ovarian = tested on: OVCAR-8 ovarian
SK-MEL-5 melanoma = tested on: SK-MEL-5 melanoma
MDA-MB-435 = tested on: MDA-MB-435
TK-10 renal = tested on: TK-10 renal
OVCAR-4 ovarian = tested on: OVCAR-4 ovarian
ACHN renal = tested on: ACHN renal
SF-268 CNS = tested on: SF-268 CNS
SK-MEL-28 melanoma = tested on: SK-MEL-28 melanoma
MALME-3M melanoma = tested on: MALME-3M melanoma
EKVX NSCLC = tested on: EKVX NSCLC
CCRF-CEM leukemia = tested on: CCRF-CEM leukemia
PC-3 prostate = tested on: PC-3 prostate
IGROV1 ovarian = tested on: IGROV1 ovarian
OVCAR-3 ovarian = tested on: OVCAR-3 ovarian
A549 NSCLC = tested on: A549 NSCLC
SNB-19 CNS = tested on: SNB-19 CNS
NCI/ADR-RES ovarian = tested on: NCI/ADR-RES ovarian
U251 CNS = tested on: U251 CNS
RXF 393 renal = tested on: RXF 393 renal
SW-620 colon = tested on: SW-620 colon
UACC-62 melanoma = tested on: UACC-62 melanoma
HS 578T breast = tested on: HS 578T breast
HT29 colon = tested on: HT29 colon
UO-31 renal = tested on: UO-31 renal
OVCAR-5 ovarian = tested on: OVCAR-5 ovarian
RPMI-8226 leukemia = tested on: RPMI-8226 leukemia
DU-145 prostate = tested on: DU-145 prostate
K-562 leukemia = tested on: K-562 leukemia
MDA-MB-231 breast = tested on: MDA-MB-231 breast
SK-MEL-2 melanoma = tested on: SK-MEL-2 melanoma
786-0 renal = tested on: 786-0 renal
M14 melanoma = tested on: M14 melanoma
HCT-116 colon = tested on: HCT-116 colon
UACC-257 melanoma = tested on: UACC-257 melanoma
HCT-15 colon = tested on: HCT-15 colon
KM12 colon = tested on: KM12 colon
CAKI-1 renal = tested on: CAKI-1 renal
SF-295 CNS = tested on: SF-295 CNS
COLO 205 colon = tested on: COLO 205 colon
A498 renal = tested on: A498 renal
NCI-H226 lung = tested on: NCI-H226 lung
NCI-H522 lung = tested on: NCI-H522 lung
HL-60(TB) leukemia = tested on: HL-60(TB) leukemia
NCI-H460 lung = tested on: NCI-H460 lung
BT-549 breast = tested on: BT-549 breast
NCI-H23 lung = tested on: NCI-H23 lung
HOP-62 NSCLC = tested on: HOP-62 NSCLC
LOX IMVI melanoma = tested on: LOX IMVI melanoma
SN12C renal = tested on: SN12C renal
SK-OV-3 ovarian = tested on: SK-OV-3 ovarian

Measured: TGI

CC1CC(N2CCOCC2)=Nc2ccccc2N1Cc1ccccc1 (stereo not given)
63.1 µM: MALME-3M melanoma
63.4 µM: RXF 393 renal
52.3 µM: A498 renal
> 100 µM: all other assays above
